Measured values reported in patent US9623031B2, “Compositions, methods and kits for treating cancer” (priority 2011, dated 2017).
“Also recorded” adds a separate entry of the source.

What was measured:
[1] = test system: primary human AML cells; LSCs (CD34+CD38−CD123+); assay: Apoptosis of primary human AML cells and AML LSCs (annexin V); type: cell-based
Protocol: In this experiment, 110,000/well primary AML cells were cultured in above specified media for 6 and 12 hrs. Cells were collected and washed once with ice cold PBS. The cells were resuspended in 200 ul 1× Apoptosis buffer with annexin-V PE to all tubes. The cells were washed in PBS and resuspended in 600 ul PBS and transfer into flow tubes and analyzed for apoptosis (Annexin V+ cells) on FC-500. […] In this experiment, 110,000/well AML cells were cultured in earlier mentioned media for 6 and 12 hrs. Cells were collected and washed once in PBS and resuspended in 200 ul PBS and blocked with FC receptor antibody 10 mins RT. The following antibodies were added: CD38, CD123, CD34, CD117 (BD bioscience) for 1 hr on ice. Cells were washed in PBS once and resuspended in 200 ul of apoptotic buffer, and annexin V was added and incubated for 15 mins. Apoptotic cells (Annexin V+ cells) were counted by flow cytometry. […] Cells were collected and washed once in PBS and resuspended in 200 ul PBS and blocked with FC receptor antibody 10 mins RT. The following antibodies were added: CD38, CD123, CD34 (BD bioscience) for 1 hr on ice. Cells were washed in PBS once and resuspended in 200 ul of apoptotic buffer, and annexin V was added and incubated for 15 mins. Apoptotic cells (Annexin V+ cells) were counted by flow cytometry.
Referring to the results shown in FIG. 16, these experiments were performed with primary AML stem cells isolated from a patient. […] In an identical experiment, the cells were also treated with a synthetic DP agonist, ZK118182 (100 nM). Apoptosis of cells (by annexin V staining) was measured using flow cytometry.

residual FV-LSCs = assay: Secondary transplants from treated FV-LSC mice into BALB/c-Stk−/− recipients; type: in vivo, mouse; conditions: donor cells from treated FV-LSC transplanted mice
Protocol: Secondary transplants to test for residual LSCs after treatment with Δ^12-PGJ3: For the CML model, B6.SJLPtprca Pep3b/BoyJ (CD45.1^+) mice were treated with 5-FU and bone marrow cells enriched in cycling HSCs were isolated followed by infection with MIGR-BCR-ABL virus or control MSCV-GFP virus as described above. The cells were transplanted into C57BL/6 (CD45.2) recipient mice as mentioned earlier. The mice were treated with Δ^12-PGJ3 or vehicle control as indicated. Two weeks after treatment, spleen cells were isolated and transplanted into irradiated secondary C57BL/6 (CD45.2) recipients as described above. Two weeks after secondary transplant, mice were analyzed for WBC counts, splenomegaly and the presence of GFP^+ or CD45.1 donor cells in the bone marrow and spleen by flow cytometry. Secondary transplants were also done with FV infected mice treated with Δ^12-PGJ3 or vehicle control. BALB/c mice were infected with Friend virus as described above. The mice were treated with Δ^12-PGJ3 or vehicle control as indicated. Two weeks after treatment, spleen cells isolated from FV-infected mice and transplanted into BALB/c-Stk^−/− recipient mice (1×10^5 cells per mouse). Five weeks post transplant, the mice with secondary transplants were tested for WBC counts, splenomegaly and for the presence of M34^+Kit^+Sca1^+FV-LSCs by flow cytometry.

[2] = test system: murine erythroleukemia (MEL) cells; assay: MEL cell apoptosis and viability (MTT, CCK-8); type: cell-based, mouse
Protocol: Cell culture. Murine erythroleukemia (MEL) cells were cultured in DMEM with 10% FBS. In order to examine the production 3-series PGs, BALB/c-derived RAW264.7 macrophage-like cells (ATCC) were cultured in DMEM containing 5% FBS, 250 nM sodium selenite, and 50 μM EPA (as BSA conjugate) for 72 h followed by stimulation with E. coli endotoxin lipopolysaccharide (LPS; Serotype 0111B4; 50 ng/ml) for 30 min. The cells were cultured in fresh DMEM for an additional 24-144 h. Cells cultured with cell culture-grade fatty acid free BSA (Sigma Aldrich) served as a control. Culture media was withdrawn at various times and analyzed for 3-series PGs as described below. Total RNA was isolated from cells or tissues using Trizol reagent as per the instructions of the supplier (Invitrogen, Carlsbad, Calif.) and cDNA was prepared using a High Capacity cDNA Reverse Transcriptase kit (Applied Biosystems, Foster City, Calif.). Semiquantitative RT-PCR for p53 and β-actin was performed with primers as described in Supplementary Methods. Nuclear and cytoplasmic protein extracts of LSCs were prepared using standard methods previously described (Vunta H et al., J Biol Chem. 2007; 282:17964-17973).
Cell viability studies. MEL cells were cultured in DMEM containing 10% FBS and treated with various commonly used anti-leukemic drugs such as daunorubicin (DNR), mitoxantrone (MIT), and cytarabine (CYT) at a final concentration […] for 24 h. […] After 24 h of drug treatment, cell proliferation was measured by MTT assay with CCK-8 kit from Dojindo Molecular Technologies, Inc. (Gaithersburg, Md.). All viability values reported are relative to untreated cells (UT) that was designated to be 100%. Results represent the mean±SEM of three independent observations.
In order to address whether MEL cells are resistant in general to chemotherapy agents, we tested whether MEL cells can be killed by apoptosis when treated with standard anti-leukemia drugs. Treatment with various commonly used anti-leukemic drugs such as daunorubicin (DNR), mitoxantrone (MIT), and cytarabine (CYT) at a final concentration 1 μM for 24 h. […] After 24 h of drug treatment, cell proliferation was measured by MTT assay with CCK-8 kit from Dojindo Molecular Technologies, Inc. (Gaithersburg, Md.). […] The results represent the mean±SEM of three independent observations.

LSCs = assay: Apoptosis of LSCs as summarised in the discussion (model not specified or both models); type: cell-based, mouse
Protocol: Apoptosis of LSCs was performed using annexin V as described below in Supplementary Information and Methods.
The LSCs were diluted in DMEM, resuspended using a 16-gauge needle, and collected by centrifugation. 1×10^5 cells were resuspended in 200 μl of binding buffer (0.1 M HEPES with 1.4 M NaCl, 25 mM CaCl2, pH 7.4). Annexin V FITC (BD Biosciences) was incubated with cells for 15 min on ice followed by flow cytometric analysis.

In the case of CC/C=C\C[C@H](O)C/C=C1/C(=O)C=C[C@@H]1C/C=C\CCCC(=O)O [Δ^12-PGJ3, Δ^12-prostaglandin J3], the “apoptosis of AML LSCs (Annexin V+ fraction of CD34+CD38−CD123+ cells)” value ([1]; 100 nM, 6 h, patients #100810, #123009, #033107, #041909, #101308) is reported as “targeted the LSCs in all these samples”, the “apoptosis of primary human AML cells (Annexin V+)” value ([1]; 100 nM, 6 and 12 hrs) is reported as “induces apoptosis of primary human AML cells” and the “apoptosis of primary AML cells from bone marrow of an AML patient (72% CD133+)” value ([1]; 5, 50, 100 nM, 6 and 24 h, annexin V) is reported as “effective even in human primary leukemia stem cells”. For the same compound, the “splenomegaly, WBC counts and LSCs in secondary recipients” value (residual FV-LSCs) was “failed to develop splenomegaly or high WBC counts and lacked LSCs in their spleens”, the “apoptosis of MEL cells (lack functional p53)” value [2] was “cannot induce apoptosis; also recorded: failed to initiate apoptosis” and the “targeting of LSCs for apoptosis” value (LSCs; FV-induced leukemia and BCR-ABL+ retrovirus-based murine CML model) was “targeted LSCs for apoptosis”. For the same compound, the IC50 (LSCs; LSC type not specified, read-out: IC50, concentration required to cause apoptosis of LSCs) was 7 nM.
